For one assay, the system named is HCC70 cells. In words: Inhibition of cell proliferation (CyQUANT Direct), HCC70. The assay is classed as cell-based, human. The conditions noted are these: Homo sapiens, HCC70, 72-hour.
The next assay relates to COV318 cells. In words: Inhibition of cell proliferation (CyQUANT Direct), COV318. The assay is classed as cell-based, human. Conditions: Homo sapiens, COV318, 72-hour.
The subject of a further assay is COV504 cells. In words: Inhibition of cell proliferation (CyQUANT Direct), COV504. The assay is classed as cell-based, human. The conditions noted are these: Homo sapiens, COV504, 72-hour.
In a further assay the test system is MB453 cells. In words: Inhibition of cell proliferation (CyQUANT Direct), MB453. The assay is classed as cell-based, human. The conditions noted are these: Homo sapiens, MB453, 72-hour.
Another assay addresses CDK2/Cyclin E1 complex (Homo sapiens, UniProt P24941). Description: CDK2 kinase inhibition assay (Caliper/LabChip EZ Reader).
The target in assay [1] is CDK7/Cyclin H/MAT1 complex (Homo sapiens, UniProt P50613). Description: CDK7 kinase inhibition assay (Caliper/LabChip EZ Reader).
CDK7/Cyclin H/MAT1 complex, sequence (P50613 whole entry): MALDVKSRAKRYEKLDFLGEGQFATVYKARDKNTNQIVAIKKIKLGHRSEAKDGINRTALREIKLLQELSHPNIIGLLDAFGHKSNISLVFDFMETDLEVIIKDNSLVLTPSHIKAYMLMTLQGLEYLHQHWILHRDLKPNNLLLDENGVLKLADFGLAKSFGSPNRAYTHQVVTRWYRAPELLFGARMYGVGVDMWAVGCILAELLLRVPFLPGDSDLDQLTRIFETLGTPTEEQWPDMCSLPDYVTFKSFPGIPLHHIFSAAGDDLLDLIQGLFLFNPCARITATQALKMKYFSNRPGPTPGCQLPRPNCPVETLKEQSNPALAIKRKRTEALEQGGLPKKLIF
CDK7/Cyclin H/MAT1 complex, sequence (P51946 whole entry partner): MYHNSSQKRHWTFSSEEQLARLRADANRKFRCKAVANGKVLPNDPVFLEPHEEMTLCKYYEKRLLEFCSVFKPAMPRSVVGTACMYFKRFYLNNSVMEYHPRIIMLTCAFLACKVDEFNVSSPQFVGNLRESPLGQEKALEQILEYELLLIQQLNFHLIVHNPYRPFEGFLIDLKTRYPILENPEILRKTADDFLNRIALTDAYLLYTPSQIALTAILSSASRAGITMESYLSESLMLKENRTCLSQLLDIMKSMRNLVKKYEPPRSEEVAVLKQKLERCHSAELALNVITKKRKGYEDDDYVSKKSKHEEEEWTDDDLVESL
CDK7/Cyclin H/MAT1 complex, sequence (P51948 whole entry partner): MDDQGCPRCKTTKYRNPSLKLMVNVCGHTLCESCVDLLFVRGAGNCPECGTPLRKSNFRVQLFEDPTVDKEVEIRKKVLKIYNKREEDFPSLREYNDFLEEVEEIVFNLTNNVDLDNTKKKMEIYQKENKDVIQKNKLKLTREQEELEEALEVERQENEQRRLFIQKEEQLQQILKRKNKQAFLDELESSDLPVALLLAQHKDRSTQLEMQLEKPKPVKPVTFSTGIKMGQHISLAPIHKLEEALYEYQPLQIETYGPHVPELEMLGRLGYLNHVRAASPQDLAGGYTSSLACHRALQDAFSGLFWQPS
The next assay concerns the target CDK9/Cyclin T1 complex (Homo sapiens, UniProt P50750). Description: CDK9 kinase inhibition assay (Caliper/LabChip EZ Reader).
Assay [2] deals with CDK12 (aa686-1082)/Cyclin K complex (Homo sapiens, UniProt Q9NYV4). In words: CDK12 kinase inhibition assay (Caliper/LabChip EZ Reader).
CDK12 (aa686-1082)/Cyclin K complex, sequence (Q9NYV4 686-1082): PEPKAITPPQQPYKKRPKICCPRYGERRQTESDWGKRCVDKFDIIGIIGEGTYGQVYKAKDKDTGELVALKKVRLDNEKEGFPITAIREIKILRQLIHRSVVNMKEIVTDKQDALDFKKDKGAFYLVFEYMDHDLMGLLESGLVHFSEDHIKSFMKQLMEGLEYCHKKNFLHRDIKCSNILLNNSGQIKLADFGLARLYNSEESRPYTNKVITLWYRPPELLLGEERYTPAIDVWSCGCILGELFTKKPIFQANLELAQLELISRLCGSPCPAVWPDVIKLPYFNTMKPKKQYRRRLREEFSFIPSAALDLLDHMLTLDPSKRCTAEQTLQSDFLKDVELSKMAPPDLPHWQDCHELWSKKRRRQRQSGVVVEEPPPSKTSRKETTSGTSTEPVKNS
CDK12 (aa686-1082)/Cyclin K complex, sequence (O75909 whole entry partner, the tested form may be a part): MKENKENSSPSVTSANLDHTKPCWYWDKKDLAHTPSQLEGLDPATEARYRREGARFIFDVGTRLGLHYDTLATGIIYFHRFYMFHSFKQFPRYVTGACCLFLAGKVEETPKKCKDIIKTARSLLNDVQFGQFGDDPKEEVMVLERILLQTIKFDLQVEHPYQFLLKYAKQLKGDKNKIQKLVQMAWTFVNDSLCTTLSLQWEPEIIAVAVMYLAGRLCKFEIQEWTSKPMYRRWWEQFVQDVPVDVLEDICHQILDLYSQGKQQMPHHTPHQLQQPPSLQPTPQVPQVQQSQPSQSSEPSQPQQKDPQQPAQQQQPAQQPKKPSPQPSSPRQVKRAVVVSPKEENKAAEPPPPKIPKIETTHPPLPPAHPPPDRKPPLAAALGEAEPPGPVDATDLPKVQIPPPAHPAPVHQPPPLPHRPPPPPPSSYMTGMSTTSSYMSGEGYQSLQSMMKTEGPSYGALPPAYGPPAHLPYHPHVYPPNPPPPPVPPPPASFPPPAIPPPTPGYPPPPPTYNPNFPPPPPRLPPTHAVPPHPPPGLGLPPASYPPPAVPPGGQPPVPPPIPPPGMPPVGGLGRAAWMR

IC50 data for 8 molecules are collected here from patent US11311542B2, “Inhibitors of cyclin dependent kinase 7 (CDK7)” (Syros Pharmaceuticals, Inc., priority 2018, dated 2022).

The term IC50 denotes the midpoint of a concentration-inhibition curve.

CDK9/Cyclin T1 complex, sequence (P50750 whole entry, the tested form may be a part): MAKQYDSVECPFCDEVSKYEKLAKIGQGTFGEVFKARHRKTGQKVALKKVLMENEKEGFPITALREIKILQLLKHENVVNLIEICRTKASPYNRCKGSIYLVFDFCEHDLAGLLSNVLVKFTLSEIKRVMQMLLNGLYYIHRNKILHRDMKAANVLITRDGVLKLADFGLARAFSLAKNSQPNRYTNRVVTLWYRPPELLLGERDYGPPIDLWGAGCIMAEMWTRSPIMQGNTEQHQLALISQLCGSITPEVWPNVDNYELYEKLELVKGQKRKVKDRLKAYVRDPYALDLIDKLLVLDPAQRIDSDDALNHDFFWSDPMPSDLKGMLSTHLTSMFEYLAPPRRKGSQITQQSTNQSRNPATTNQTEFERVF
CDK9/Cyclin T1 complex, sequence (O60563 whole entry partner, the tested form may be a part): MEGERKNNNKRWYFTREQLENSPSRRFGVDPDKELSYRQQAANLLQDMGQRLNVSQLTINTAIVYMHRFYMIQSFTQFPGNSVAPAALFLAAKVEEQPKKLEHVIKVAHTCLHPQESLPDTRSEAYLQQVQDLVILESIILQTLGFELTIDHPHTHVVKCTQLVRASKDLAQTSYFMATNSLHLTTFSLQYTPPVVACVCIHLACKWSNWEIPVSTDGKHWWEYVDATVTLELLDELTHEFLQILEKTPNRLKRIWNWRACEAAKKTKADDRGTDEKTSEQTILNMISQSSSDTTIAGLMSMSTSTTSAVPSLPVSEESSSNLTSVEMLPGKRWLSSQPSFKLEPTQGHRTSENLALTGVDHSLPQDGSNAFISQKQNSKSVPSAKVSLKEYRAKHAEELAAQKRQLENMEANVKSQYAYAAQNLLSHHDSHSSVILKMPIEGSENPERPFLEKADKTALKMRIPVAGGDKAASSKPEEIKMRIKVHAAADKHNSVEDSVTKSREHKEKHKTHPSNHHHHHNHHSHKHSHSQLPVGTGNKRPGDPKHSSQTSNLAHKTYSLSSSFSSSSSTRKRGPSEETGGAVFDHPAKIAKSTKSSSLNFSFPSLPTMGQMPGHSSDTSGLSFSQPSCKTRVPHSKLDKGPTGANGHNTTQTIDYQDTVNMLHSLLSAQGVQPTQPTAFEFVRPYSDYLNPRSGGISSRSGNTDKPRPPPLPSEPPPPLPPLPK
Procedure for CDK2/Cyclin E1 complex: (§1) Compounds described herein were assayed for inhibition of CDK7, CDK9, CDK12, and CDK2 activity at Biortus Biosciences (Jiangyin, Jiangsu Province, P.R. of China) using kinase assays for each CDK developed with a Caliper/LabChip EZ Reader (Perkin Elmer, Waltham, Mass.).
(§2) Furthermore, the CDK9 inhibition assay used CDK9/Cyclin T1 complex (8 nM) and “5-FAM-CDK9tide” peptide substrate (2 μM, synthesized fluorophore-labeled peptide with the following sequence: 5-FAM-GSRTPMY-NH2 (SEQ ID NO:2) where 5-FAM is defined above and NH2 signifies a C-terminal amide) with 10 mM MgCl2 in the buffer composition listed above. The CDK12 inhibition assay used CDK12 (aa686-1082)/Cyclin K complex (50 nM) and “5-FAM-CDK9tide” (2 μM) as defined above, with 2 mM MgCl2 in the buffer composition above. Additionally, the CDK2 inhibition assay used CDK2/Cyclin E1 complex (0.5 nM) and “5-FAM-CDK7tide” (2 μM; defined above) with 2 mM MgCl2 in the buffer composition above.
(§3) The incubation period at 27° C. for each CDK inhibition assay was chosen such that the fraction of phosphorylated peptide product produced in each assay, relative to the total peptide concentration, was approximately 20% (±5%) for the uninhibited kinase (35 min. for CDK7, 35 min. for CDK2, 3 hr. for CDK12, 15 min. for CDK9).
Procedure for CDK9/Cyclin T1 complex: as §1, §2, §3

With `Cc1noc(C)c1-c1ccc2c(-c3nc(N[C@@H]4CNC[C@H](O)C4)ncc3C(F)(F)F)c[nH]c2c1` [Compound 105, (3R,5S)-5-[[4-[6-(3,5-dimethylisoxazol-4-yl)-1H-indol-3-yl]-5-(trifluoromethyl)pyrimidin-2-yl]amino]piperidin-3-ol], the IC50 is under 100 nM in the assay with HCC70 cells; 500 to 1000 nM in the assay on COV318 cells; 100 to 500 nM in the assay on COV504 cells; 100 to 500 nM in the assay with MB453 cells; over 500 nM against CDK2/Cyclin E1 complex; under 30 nM in assay [1]. The IC50 (on CDK9/Cyclin T1 complex; in assay [2]) was over 500 nM throughout.

As to `Cc1nscc1-c1ccc2c(-c3nc(N[C@H]4CCCNC4)ncc3C(F)(F)F)c[nH]c2n1` [Compound 149], the IC50 in the assay on HCC70 cells was under 100 nM; in the assay with COV318 cells, under 100 nM; with COV504 cells, under 100 nM; in the assay with MB453 cells it was under 100 nM; on CDK2/Cyclin E1 complex, over 500 nM; in assay [1], under 30 nM. Besides, the IC50 (at CDK9/Cyclin T1 complex; in assay [2]) was over 500 nM in each case.

For `Cc1nnc(-c2ccc3c(-c4nc(N[C@H]5CCCNC5)ncc4C(F)(F)F)c[nH]c3c2)s1` [Compound 123], the IC50 is 100 to 500 nM with HCC70 cells; 100 to 500 nM with COV318 cells; under 100 nM in the assay with COV504 cells; under 100 nM in the assay on MB453 cells; over 500 nM against CDK2/Cyclin E1 complex; under 30 nM in assay [1]. Further, the IC50 (against CDK9/Cyclin T1 complex; in assay [2]) was over 500 nM in each case.

With `Cc1nocc1-c1ccc2c(-c3nc(N[C@@H]4CNC[C@H](O)C4)ncc3C(F)(F)F)c[nH]c2n1` [Compound 148, (3R,5S)-5-[[4-[6-(3-methylisoxazol-4-yl)-1H-pyrrolo[2,3-b]pyridin-3-yl]-5-(trifluoromethyl)pyrimidin-2-yl]amino]piperidin-3-ol], the IC50 in the assay with HCC70 cells was over 1000 nM; with COV318 cells it was over 1000 nM; with COV504 cells, 500 to 1000 nM; in the assay with MB453 cells, 100 to 500 nM; at CDK2/Cyclin E1 complex, over 500 nM; in assay [1], under 30 nM. Moreover, the IC50 (on CDK9/Cyclin T1 complex; in assay [2]) was over 500 nM throughout.

`Cc1nnc(-c2ccc3c(-c4nc(N[C@H]5CC[C@H](C)NC5)ncc4C(F)(F)F)c[nH]c3n2)s1` [Compound 154, N-[(3S,6S)-6-methyl-3-piperidyl]-4-[6-(5-methyl-1,3,4-thiadiazol-2-yl)-1H-pyrrolo[2,3-b]pyridin-3-yl]-5-(trifluoromethyl)pyrimidin-2-amine]: the IC50 is 100 to 500 nM with HCC70 cells; over 1000 nM in the assay with COV318 cells; 100 to 500 nM with COV504 cells; over 1000 nM in the assay on MB453 cells; over 500 nM on CDK2/Cyclin E1 complex; under 30 nM in assay [1]. Further, the IC50 (at CDK9/Cyclin T1 complex; in assay [2]) was over 500 nM throughout.

With `Cn1nnnc1-c1ccc2c(-c3nc(N[C@H]4CCCNC4)ncc3C(F)(F)F)c[nH]c2c1` [Compound 122, 4-[6-(1-methyltetrazol-5-yl)-1Hindol-3-yl]-N-[(3S)-3-piperidyl]-5-(trifluoromethyl)pyrimidin-2-amine], the IC50 in the assay on HCC70 cells is 100 to 500 nM; in the assay with COV318 cells, over 1000 nM; with COV504 cells, under 100 nM; in the assay on MB453 cells, under 100 nM; at CDK2/Cyclin E1 complex, over 500 nM; in assay [1], under 30 nM. The IC50 (at CDK9/Cyclin T1 complex; in assay [2]) was over 500 nM in each case.

On to `Cc1noc(C)c1-c1ccc2c(-c3nc(N[C@@H]4CNCC(C)(C)C4)ncc3C(F)(F)F)c[nH]c2n1` [Compound 115], for which the IC50 is under 100 nM in the assay with HCC70 cells; under 100 nM with COV318 cells; under 100 nM with COV504 cells; under 100 nM in the assay with MB453 cells; 100 to 500 nM at CDK2/Cyclin E1 complex; under 30 nM in assay [1]. Moreover, the results for the concentration for half-maximal inhibition (IC50) (against CDK9/Cyclin T1 complex; in assay [2]) were over 500 nM and 100 to 500 nM, respectively.

Turning to `Cc1nocc1-c1ccc2c(-c3nc(N[C@H]4CCCNC4)ncc3C(F)(F)F)c[nH]c2n1` [Compound 132], the IC50 was under 100 nM in the assay with HCC70 cells; under 100 nM in the assay on COV318 cells; under 100 nM in the assay with COV504 cells; under 100 nM in the assay on MB453 cells; over 500 nM at CDK2/Cyclin E1 complex; under 30 nM in assay [1]. Also, the IC50 (at CDK9/Cyclin T1 complex; in assay [2]) was over 500 nM each time.
